Data: US20100068208A1, “Degranulation inhibitor” (priority 2005, published 2010)

Columns and labels:
[1] = test system: human mast cell line LAD 2; assay: Expression of TNF-α, CCL-2 or CCL-5 mRNA in LAD 2 (TaqMan PCR); type: cell-based; settings: various TGR12 ligands experiment, 1 μM, two hours after stimulation
Method: Human mast cell line LAD 2 was cultured in StemPro-34 medium (Invitrogen) supplemented with 100 ng/mL of stem cell factor (Immuno-Biological Laboratories Co., Ltd.). […] A 750 μL aliquot was inoculated on a 24-well plate, which was then allowed to stand in a CO2 incubator at 37° C. for 30 minutes. […] The assay was performed for the respective reaction conditions in n=3. The plate was ice-chilled 0.5, 2, 8 and 24 hours after to stop the activation of LAD 2. After centrifugation at 300×g for 5 minutes, total RNA was extracted from the precipitated cells using RNeasy Mini Kit (Qiagen) according to the protocol attached. Further in the experiments where expression levels upon stimulation by various TGR12 ligands were analyzed, LAD 2 was centrifuged at 300×g for 5 minutes and the cells precipitated were counted and suspended in the medium at 1.33×10^6 cells/mL. A 750 μL aliquot was inoculated on a 24-well plate, which was allowed to stand in a CO2 incubator at 37° C. for 30 minutes. […] The assay was performed for the respective reaction conditions in n=3. Two hours after, the plate was ice-chilled to stop the activation of LAD 2. After centrifugation at 300×g for 5 minutes, total RNA was extracted from the precipitated cells using RNeasy Mini Kit (Qiagen) according to the protocol attached. The total RNA obtained as described above was concentrated using ethachinmate according to the protocol attached and dissolved in RNase-free H2O, Next, using the solution corresponding to […] of total RNA, reverse transcription was performed by the following procedure using SuperScript II reverse transcriptase (Invitrogen) to synthesize single stranded cDNA. To the total RNA solution, 0.1 μg of random primer (Invitrogen) and 1 μL of 10 mM dNTP (Invitrogen) were added and then RNase-free H2O was added to make the whole volume 12 μL. The mixture was then incubated at 70° C. for 10 minutes and ice-cooled for a minute. After 4 μL of 5× First-Strand Buffer (attached to SuperScript II reverse transcriptase), 2 μL of 0.1M DTT (attached to SuperScript II reverse transcriptase), 1 μL of RNaseOUT (Invitrogen) and 1 μL of SuperScript II reverse transcriptase were added, the mixture was incubated at 42° C. for 50 minutes, then at 70° C. for 15 minutes and ice-cooled for 5 minutes. The thus obtained cDNA was purified using ethachinmate in accordance with the protocol attached and dissolved in Tris-EDTA buffer (Fluka).
In TaqMan PCR below, hTNFalpha-tF (SEQ ID NO: 33) and hTNFalpha-tR (SEQ ID NO: 34) were used as primers for human TNF-α quantification, hTNFalpha-tP (SEQ ID NO: 35) as a probe and hTNFalpha-standard (SEQ ID NO: 36) as a standard. For human CCL-5 quantification, hCCL5-tF (SEQ ID NO: 37) and hCCL5-tR (SEQ ID NO: 38) were used as primers, hCCL5-tP (SEQ ID NO: 39) as a probe and hCCL5 standard (SEQ ID NO: 40) as a standard. For human CCL-2 quantification, hCCL2-tF (SEQ ID NO: 41) and hCCL2-tR (SEQ ID NO: 42) were used as primers, hCCL2-tP (SEQ ID NO: 43) as a probe and hCCL2 standard (SEQ ID NO: 44) as a standard.
TaqMan PCR was performed in n=2 for each sample in a liquid volume of 15 μl using 12.5 ng of total RNA as a template. The reaction solution was composed of 900 nM primer, 250 nM probe and ½ volume of TaqMan Universal PCR Master Mix (Applied Biosystems). The reaction and analysis were performed by ABI PRISM 7900HT Sequence Detection System (Applied Biosystems). After keeping warm at 50° C. for 2 minutes and then at 95° C. for 10 minutes, the reaction cycle was set in one cycle to include 95° C. for 15 seconds and 60° C. for 1 minute and repeating the cycle 40 times.

[2] = test system: TGR12; design: species or system human; settings: CHO-TGR12GFP, 200 pM [125I]-rCST14 (Y0), 4° C. 2 hours; read-out: IC50 (competitive binding, Hill plot analysis)
Method: [^125I]-Labeled rat cortistatin-14 (Tyr0) (hereinafter [^125I]-rCST14 (Y0)) used for the competitive binding assay was prepared as follows. After 3 nmol/6 μL of rCST14 (Y0) (Funakoshi Co.), 6 μL of 10 μg/mL lactoperoxidase (in 0.1M HEPES (pH 7, 4)), 6 μL of 0.001% H2O2 and 6 μL of 37 MBq NaI (6 μL of 15 mg/100 mL NaI was used in cold run) were mixed, the mixture was reacted at room temperature for 20 minutes. […] For fractionation, TSKgel ODS-80™ was used, 10% MeCN/0.1% TFA was used as eluant A and 60% MeCN/0.1% TFA was used as eluant B at a gradient of 0-25 (2 mins.), 25-27.5 (3 mins.) and 27.5-35 (60 mins.), respectively; and the flow rate was 1 mL/min.
CHO/dhfr^− cells (hereinafter CHO) were incubated in α-MEM (Invitrogen) supplemented with 10% fetal calf serum. […]
The binding assay using CHO-TGR12GFP was performed as follows. […] After washing 3 times with 500 μL of the assay buffer, the cells were lysed in 250 μL of 0.5N NaOH and the lysate was recovered for measurement of the radioactivity.

SMILES: CSCC[C@H](NC(=O)[C@H](CCCNC(=N)N)NC(=O)[C@@H](N)CC(=O)O)C(=O)N1CCC[C@H]1C(=O)N[C@H]1CSSC[C@@H](C(=O)N[C@@H](CCCCN)C(=O)O)NC(=O)[C@H](CO)NC(=O)[C@H](CO)NC(=O)[C@H](Cc2ccccc2)NC(=O)[C@H]([C@@H](C)O)NC(=O)[C@H](CCCCN)NC(=O)[C@H](Cc2c[nH]c3ccccc23)NC(=O)[C@H](Cc2ccccc2)NC(=O)[C@H](Cc2ccccc2)NC(=O)[C@H](CC(N)=O)NC(=O)[C@H](CCCNC(=N)N)NC1=O [cortistatin-17]
- expression level of CCL-2 in LAD 2 [1]: 2944622 copies
- expression level of CCL-5 in LAD 2 [1]: 47322 copies
- expression level of TNF-α in LAD 2 [1]: 163551 copies

SMILES: CC(C)C[C@H](NC(=O)[C@H](C)NC(=O)[C@H](Cc1c[nH]c2ccccc12)NC(=O)[C@H](CCCCN)NC(=O)[C@H](CC(N)=O)NC(=O)[C@H](Cc1c[nH]c2ccccc12)NC(=O)[C@H](CCCCN)NC(=O)[C@H](CCCCN)NC(=O)[C@H](CCCNC(=N)N)NC(=O)[C@@H](N)Cc1ccccc1)C(=O)N[C@@H](CO)C(=O)N[C@@H](CCCNC(=N)N)C(N)=O [PAMP-12, proadrenomedullin N-terminal 20 peptide (9-20)]
- expression level of CCL-2 in LAD 2 [1]: 1143248 copies
- expression level of CCL-5 in LAD 2 [1]: 34566 copies
- expression level of TNF-α in LAD 2 [1]: 8918 copies

SMILES: CC[C@H](C)[C@H](NC(=O)CNC(=O)[C@H](CC(=O)O)NC(=O)[C@H](CO)NC(=O)[C@@H](N)Cc1c[nH]cn1)C(=O)N[C@@H](Cc1ccccc1)C(=O)N[C@H](C(=O)N[C@@H](CC(=O)O)C(=O)N[C@@H](CO)C(=O)N[C@@H](Cc1ccc(O)cc1)C(=O)N[C@@H](CO)C(=O)N[C@@H](CCCNC(=N)N)C(=O)N[C@@H](Cc1ccc(O)cc1)C(=O)N[C@@H](CCCNC(=N)N)C(=O)N[C@@H](CCCCN)C(=O)N[C@@H](CCC(N)=O)C(=O)N[C@@H](CCSC)C(=O)N[C@@H](C)C(=O)N[C@H](C(=O)N[C@@H](CCCCN)C(=O)N[C@@H](CCCCN)C(=O)N[C@@H](Cc1ccc(O)cc1)C(=O)N[C@@H](CC(C)C)C(=O)N[C@@H](C)C(=O)N[C@@H](C)C(=O)N[C@H](C(=O)N[C@@H](CC(C)C)C(N)=O)C(C)C)C(C)C)[C@@H](C)O [PACAP-27]
- expression level of CCL-2 in LAD 2 [1]: 3809873 copies
- expression level of CCL-5 in LAD 2 [1]: 48242 copies
- expression level of TNF-α in LAD 2 [1]: 219597 copies
- IC50 [2]: 264 nM

SMILES: CC[C@H](C)[C@H](NC(=O)[C@H](CO)NC(=O)[C@H](CC(N)=O)NC(=O)[C@H](CC(C)C)NC(=O)[C@H](Cc1ccc(O)cc1)NC(=O)[C@H](CCCCN)NC(=O)[C@H](CCCCN)NC(=O)[C@@H](NC(=O)[C@H](C)NC(=O)[C@H](CCSC)NC(=O)[C@H](CCC(N)=O)NC(=O)[C@H](CCCCN)NC(=O)[C@H](CCCNC(=N)N)NC(=O)[C@H](CC(C)C)NC(=O)[C@H](CCCNC(=N)N)NC(=O)[C@@H](NC(=O)[C@H](Cc1ccc(O)cc1)NC(=O)[C@H](CC(N)=O)NC(=O)[C@H](CC(=O)O)NC(=O)[C@@H](NC(=O)[C@H](Cc1ccccc1)NC(=O)[C@@H](NC(=O)[C@H](C)NC(=O)[C@H](CC(=O)O)NC(=O)[C@H](CO)NC(=O)[C@@H](N)Cc1c[nH]cn1)C(C)C)[C@@H](C)O)[C@@H](C)O)C(C)C)C(=O)N[C@@H](CC(C)C)C(=O)N[C@@H](CC(N)=O)C(N)=O [VIP, vasoactive intestinal polypeptide]
- expression level of CCL-2 in LAD 2 [1]: 3630286 copies
- expression level of CCL-5 in LAD 2 [1]: 45015 copies
- expression level of TNF-α in LAD 2 [1]: 176630 copies
- IC50 [2]: 2040 nM
